Patent publication US20090030072A1, “PHARMACEUTICAL COMBINATION OF OPIOID AND PRO[…]” (SUCAMPO AG, priority 2007, published 2009)

Test system: oxycodone-induced constipation in mice
Experiment: Graphite marker propulsion in the intestine, oxycodone-induced constipation in mice
Format: in vivo, Male Crlj: CD1 (ICR) mice
Details: 150 minutes after graphite marker
Protocol: Male Crlj: CD1 (ICR) mice were given oral administration of 0.1 mL of graphite maker (INK-30 containing 1% tragacanth gum). Immediately after administration of the graphite marker, the animals were treated orally with oxycodone at 5 mg/kg. The dosing volume of oxycodone was set at 5 mL/kg; the animals of the normal group were given the same volume of 0.5% CMC—Na. Immediately after administration of oxycodone or 0.5% CMC—Na, the animal was treated with Compound 1. The dosing volume of the Compound 1 was set at 5 mL/kg; the animals of the normal and control groups were given the same volume of water for injection. The animals were euthanized by cervical dislocation 150 minutes after administration of graphite marker, and the abdomen was cut open. The distance from the stomach to the cecum, and moving distance of the graphite marker in the intestine were measured. Propulsion rate was calculated by the following formula.
Propulsion rate (%)=(Moving distance of graphite marker/Distance from the stomach to the cecum)×100

| Structure (SMILES) | The graphite marker propulsion rate Mean ± S.E. (control group: oxycodone 5 mg/kg oral alone, n=15, p < 0.01 compared to normal group (99.8 ± 0.2)) [%] | The graphite marker propulsion rate Mean ± S.E. (control group: oxycodone 5 mg/kg oral alone, n=15, p < 0.01 compared to normal group (99.8 ± 0.2), listed as Oxycodone) [%] | The graphite marker propulsion rate Mean ± S.E. (Compound 1 100 μg/kg combined with oxycodone 5 mg/kg oral, n=15, p < 0.05 compared to control group) [%] |
| --- | --- | --- | --- |
| COc1ccc2c3c1O[C@H]1C(=O)CC[C@@]4(O)[C@@H](C2)N(C)CC[C@]314 [oxycodone] | 62.3±5.6 | 62.3 ± 5.6 | – |
| CCCCC(F)(F)C(=O)CCC1C(O)CC(=O)C1CCCCCCC(=O)O (stereo not drawn) [Compound 1, 13,14-dihydro-15-keto-16,16-difluoro-PGE1] | – | – | 80.5±5.5 |
